SMILES strings stand for the structures.

The subject of one experiment is Felis catus. As to the kind of experiment: Hypotensive activity in anaesthetized cat assessed as blood pressure fall at 2 umol/kg, iv. The experiment is classed as functional.
Experiment [1] has as its target 5-hydroxytryptamine receptor 2A (Rattus norvegicus) (UniProt P14842). As to the kind of experiment: Displacement of [3H]ketanserin from rat cloned 5HT2A receptor expressed in NIH-3T3-GF6 cells at 10^-6M relative to ketanserin. The experiment is classed as cell-based.
Experiment [2] addresses 5-hydroxytryptamine receptor 2A (Rattus norvegicus, UniProt P14842). As to the kind of experiment: Displacement of [3H]ketanserin from rat cloned 5HT2A receptor expressed in NIH-3T3-GF6 cells. The experiment is classed as cell-based. (In general: Loss of bound radioactivity is the signal in a displacement assay; it reports binding, not function.)

5-hydroxytryptamine receptor 2A (Rattus norvegicus), sequence (P14842 whole entry): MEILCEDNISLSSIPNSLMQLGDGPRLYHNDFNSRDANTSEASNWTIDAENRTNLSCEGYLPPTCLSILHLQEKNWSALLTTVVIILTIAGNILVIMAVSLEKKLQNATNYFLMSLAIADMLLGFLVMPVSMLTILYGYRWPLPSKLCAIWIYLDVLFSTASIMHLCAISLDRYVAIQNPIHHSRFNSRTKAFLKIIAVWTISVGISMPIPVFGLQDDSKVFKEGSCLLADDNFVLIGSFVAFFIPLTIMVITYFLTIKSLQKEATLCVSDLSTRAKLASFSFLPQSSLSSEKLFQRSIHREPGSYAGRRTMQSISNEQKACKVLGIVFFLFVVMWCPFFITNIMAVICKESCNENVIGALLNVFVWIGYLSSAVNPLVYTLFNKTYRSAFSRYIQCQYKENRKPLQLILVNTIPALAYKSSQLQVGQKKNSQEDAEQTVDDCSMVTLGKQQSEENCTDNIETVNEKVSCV
5-hydroxytryptamine receptor 2A, sequence (P14842 whole entry): as above

With `COc1ccccc1N1CCN(CCCSc2ccccc2)CC1`, the Activity in the experiment with Felis catus is recorded as 26.23%. For `COc1ccc(SCCCN2CCN(c3cccc(C(F)(F)F)c3)CC2)cc1`, the Activity in the experiment on Felis catus is given as 53.42%.

In the case of `COc1ccc(SCCCN2CCN(c3ccc(F)cc3)CC2)cc1`, in the experiment with Felis catus, the Activity worked out at 17.46%. As to `CC(=O)Nc1ccc(SCCCN2CCN(c3ccc(Cl)c(Cl)c3)CC2)cc1`, the Activity in the experiment with Felis catus worked out at 20%. As for `Cc1ccc(SCCCN2CCN(c3ccc(Cl)c(Cl)c3)CC2)cc1`, the Activity in the experiment on Felis catus was found to be 36.36%. For `COc1ccc(SCCCN2CCN(c3cccc(Cl)c3)CC2)cc1`, in the experiment with Felis catus, the Activity is reported as 42.62%. Same read-out and setting: the figure for `Fc1ccc(N2CCN(CCCSc3ccccc3)CC2)cc1` is 20.69%; for `Cc1cccc(N2CCN(CCCSc3ccc(Cl)cc3)CC2)c1` it is 43.8%; for `COc1ccc(N2CCN(CCCSc3ccccc3)CC2)cc1` it is 15.38%. The same measure, in the same setting: to `COc1ccccc1N1CCN(CCCSc2ccc(Br)cc2)CC1` belongs 21.59%. Take `COc1ccc(N2CCN(CCCSc3ccc(Br)cc3)CC2)cc1`: the Activity stood at 23.06% in the experiment with Felis catus and 37.1% in experiment [1]. Turning to `Nc1ccc(SCCCN2CCN(c3ccc(F)cc3)CC2)cc1`, the Activity in the experiment on Felis catus is on record as 13.51%.

Consider `COc1ccc(SCCCN2CCN(c3cccc(F)c3)CC2)cc1`, for which, in the experiment on Felis catus, the Activity was found to be 17.02%. On to `c1ccc(SCCCN2CCN(c3ccccc3)CC2)cc1`, for which the Activity with Felis catus stood at 41.07%; in experiment [1], 37.4%.

Regarding `Fc1ccc(SCCCN2CCN(c3cccc(F)c3)CC2)cc1`, in the experiment with Felis catus, the Activity turned out to be 34%. Consider `COc1ccc(N2CCN(CCCSc3ccc(F)cc3)CC2)cc1`, for which the Activity with Felis catus was found to be 12.49%; in experiment [1], 25.7%. Take `COc1ccc(SCCCN2CCN(c3ccc(Cl)c(Cl)c3)CC2)cc1`: the Activity in the experiment with Felis catus worked out at 21.05%. The same measure, in the same setting: the figure for `Clc1ccc(N2CCN(CCCSc3ccccc3)CC2)cc1Cl` is 45.83%; for `Fc1ccc(N2CCN(CCCSc3ccc(Cl)cc3)CC2)cc1` it is 42.31%; for `Cc1ccccc1N1CCN(CCCSc2ccc([N+](=O)[O-])cc2)CC1` it is 42%. As to `CCNc1ccc(SCCCN2CCN(c3ccccc3C)CC2)cc1`, the Activity with Felis catus came to 48.65%. With `CCNc1ccc(SCCCN2CCN(c3cccc(C)c3)CC2)cc1`, in the experiment on Felis catus, the Activity was found to be 41.14%. On the same count and under the same terms, to `Fc1ccc(SCCCN2CCN(c3ccc(Cl)c(Cl)c3)CC2)cc1` belongs 38.3%. One may read the Ki as the dissociation constant of the complex between target and ligand, obtained from inhibition or displacement. A lower Ki goes with a stronger hold on the target. Turning to `Cc1cccc(N2CCN(CCCSc3ccc([N+](=O)[O-])cc3)CC2)c1`, the Activity is 84.41% in the experiment on Felis catus and 80.5% in experiment [1]. Moreover, affinity in experiment [2] was put at a Ki of 21.1 nM. On to `Cc1cccc(N2CCN(CCCSc3ccc(F)cc3)CC2)c1`, for which the Activity in the experiment with Felis catus is recorded as 38.3%. Turning to `Fc1ccc(SCCCN2CCN(c3ccc(F)cc3)CC2)cc1`, the figures for the Activity (in the experiment on Felis catus; in experiment [1]) were 20.66% and 32.9%, respectively. Regarding `Clc1cccc(N2CCN(CCCSc3ccccc3)CC2)c1`, the Activity in the experiment on Felis catus is 55.99%. Take `O=[N+]([O-])c1ccc(SCCCN2CCN(c3ccc(F)cc3)CC2)cc1`: the Activity in the experiment on Felis catus is recorded as 25.87%. With `CC(=O)Nc1ccc(SCCCN2CCN(c3cccc(C)c3)CC2)cc1`, the Activity in the experiment with Felis catus stood at 55%; in experiment [1], 94.7%. Moreover, the Ki in experiment [2] amounted to 6.09 nM. Consider `COc1ccc(SCCCN2CCN(c3cccc(C)c3)CC2)cc1`, for which the Activity with Felis catus stood at 21.4%. For the compound `Cc1ccc(SCCCN2CCN(c3ccc(F)cc3)CC2)cc1`, in the experiment on Felis catus, the Activity is 21.74%. On to `Clc1ccc(SCCCN2CCN(c3ccc(Cl)c(Cl)c3)CC2)cc1`, for which, in the experiment on Felis catus, the Activity amounted to 26.58%. Turning to `Fc1ccc(N2CCN(CCCSc3ccc(Br)cc3)CC2)cc1`, in the experiment with Felis catus, the Activity was found to be 19.86%.

With `CC(=O)Nc1ccc(SCCCN2CCN(c3ccc(F)cc3)CC2)cc1`, the Activity in the experiment with Felis catus turned out to be 21.21%; in experiment [1], 85.4%. For `Cc1ccc(SCCCN2CCN(c3cccc(C)c3)CC2)cc1`, the Activity in the experiment with Felis catus was determined as 55.74%. Regarding `CC(=O)Nc1ccc(SCCCN2CCN(c3ccccc3C)CC2)cc1`, the Activity in the experiment on Felis catus was found to be 51.61%; in experiment [1], 72.7%. Besides, affinity in experiment [2] was put at a Ki of 21.1 nM. On to `Cc1ccccc1N1CCN(CCCSc2ccc(F)cc2)CC1`, for which the Activity in the experiment on Felis catus was determined as 37.59%. Consider `Cc1ccccc1N1CCN(CCCSc2ccc(Cl)cc2)CC1`, for which, in the experiment with Felis catus, the Activity is recorded as 40%. On the same count and under the same terms, the figure for `Cc1cccc(N2CCN(CCCSc3ccc(N)cc3)CC2)c1` is 24.28%; for `Cc1ccc(SCCCN2CCN(c3ccccc3C)CC2)cc1` it is 61.02%. In the case of `Cc1cccc(N2CCN(CCCSc3ccccc3)CC2)c1`, the Activity in the experiment with Felis catus was determined as 65.15%; in experiment [1] it was 75.6%. In addition, in experiment [2], affinity was put at a Ki of 13.6 nM. Regarding `Fc1ccc(SCCCN2CCN(c3ccccc3)CC2)cc1`, the Activity in the experiment with Felis catus was 14.28%; in experiment [1], 37%.

The record behind these values is ChEMBL document CHEMBL1139097, “Synthesis and QSAR studies on hypotensive 1-[3-(4-substituted phenylthio) propyl]-4-(substituted phenyl) piperazines” (Bioorg Med Chem Lett, 2007).
